Data as given in PubChem BioAssay AID1259411 (Chemical Carcinogenesis Research Information System (CCRIS), 2018).
Calls of active or inactive are those of the source. No rule for the calls is given here.

Test system: rodent carcinogenicity bioassays, tumor incidence
Assay: CCRIS carcinogenicity studies
Settings: Species: RAT
In short: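 NCI-built, expert-reviewed records of carcinogenicity and related test outcomes (mutagenicity, tumor promotion/inhibition) compiled from published and report sources, historical span 1985-2011, not updated.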

`C=CCl` was tested, and the carcinogen call (Strain/Sex: SPRAGUE-DAWLEY/FEMALE, Route: INHALATION, Dose: 0, 6000, 10000 PPM IN AIR 4 HR/D 1 D/WK FOR 25 WK (STUDY DURATION: LIFETIME), Dose: 0, 6000, 10000 PPM IN AIR 4 HR/D 1 D/WK FOR 25 WK (STUDY DURATION: LIFETIME), Tumor Site: Type of Lesion: [BRAIN WAS ONLY SITE EVALUATED]) was “inactive; negative”, the carcinogen call (Strain/Sex: SPRAGUE-DAWLEY/FEMALE, Route: INHALATION, Dose: 0, 6000, 10000 PPM IN AIR 4 HR/D 5 D/WK FOR 5 WK (STUDY DURATION: LIFETIME), Dose: 0, 6000, 10000 PPM IN AIR 4 HR/D 5 D/WK FOR 5 WK (STUDY DURATION: LIFETIME), Tumor Site: Type of Lesion: [BRAIN WAS ONLY SITE EVALUATED]) was “inactive; negative” and the carcinogen call (Strain/Sex: SPRAGUE-DAWLEY/MALE,FEMALE, Route: GAVAGE, Dose: 0, 3.33, 16.65, 50.0 MG/KG IN OLIVE OIL 1/D, 4-5 D/WK FOR 52 WK (STUDY DURATION: 136 WK), Dose: 0, 3.33, 16.65, 50.0 MG/KG IN OLIVE OIL 1/D, 4-5 D/WK FOR 52 WK (STUDY DURATION: 136 WK), Tumor Site: Type of Lesion: LIVER: ANGIOSARCOMA) was “active; positive”. The carcinogen call (Strain/Sex: SPRAGUE-DAWLEY/MALE,FEMALE, Route: INHALATION, Dose: 0, 50-10000 PPM 4 HR/D, 5 D/WK FOR 52 WK (STUDY DURATION: 135 WK), Tumor Site: Type of Lesion: LIVER: ANGIOSARCOMA, NERVOUS SYSTEM: NEUROBLASTOMA, EAR (ZYMBAL GLAND): CARCINOMA, KIDNEY: NEPHROBLASTOMA, Tumor Site: Type of Lesion: LIVER: ANGIOSARCOMA, NERVOUS SYSTEM: NEUROBLASTOMA, EAR (ZYMBAL GLAND): CARCINOMA, KIDNEY: NEPHROBLASTOMA) was “active; positive”, the carcinogen call (Strain/Sex: SPRAGUE-DAWLEY/MALE, Route: GAVAGE, Dose: 0, 0.03, 0.3, 1, 3.33, 16.65, 50 MG/KG BW IN OLIVE OIL 1/D 4-5 D/WK FOR 52-59 WK (STUDY DURATION: LIFETIME), Dose: 0, 0.03, 0.3, 1, 3.33, 16.65, 50 MG/KG BW IN OLIVE OIL 1/D 4-5 D/WK FOR 52-59 WK (STUDY DURATION: LIFETIME), Tumor Site: Type of Lesion: [BRAIN WAS ONLY SITE EVALUATED]) was “inactive; negative” and the carcinogen call (Strain/Sex: SPRAGUE-DAWLEY/MALE, Route: INHALATION, Dose: 0, 600 PPM 4 HR/D, 5 D/WK FOR 1 YR (STUDY DURATION: 2.5 YR), Tumor Site: Type of Lesion: LIVER: HEPATOCELLULAR CARCINOMA, ANGIOSARCOMA) was “active; positive”. The carcinogen call (Strain/Sex: SPRAGUE-DAWLEY/MALE, Route: INHALATION, Dose: 0, 2500 PPM 4 HR/D 5 D/WK FOR 7 WK THEN 7 HR/D 5 D/WK FOR 8 WK ADMINISTERED TO RAT EMBRYOS BEGINNING ON 12TH DAY OF GEST, Tumor Site: Type of Lesion: LIVER: HEPATOMA, ANGIOSARCOMA, BRAIN: NEUROBLASTOMA) was “active; positive”, the carcinogen call (Strain/Sex: SPRAGUE-DAWLEY/MALE, Route: INHALATION, Dose: 0, 2500 PPM 4 HR/D 5 D/WK FOR 7 WK THEN 7 HR/D 5 D/WK FOR 69 WK ADMINISTERED TO RAT EMBRYOS BEGINNING ON 12TH DAY OF GES, Tumor Site: Type of Lesion: BRAIN: NEUROBLASTOMA, LIVER, HEPATOCARCINOMA, ANGIOSARCOMA, Tumor Site: Type of Lesion: BRAIN: NEUROBLASTOMA, LIVER, HEPATOCARCINOMA, ANGIOSARCOMA) was “active; positive” and the carcinogen call (Strain/Sex: SPRAGUE-DAWLEY/MALE, Route: INHALATION, Dose: 0, 6000, 10000 PPM IN AIR 1 HR/D 4 D/WK FOR 25 WK (STUDY DURATION: LIFETIME), Dose: 0, 6000, 10000 PPM IN AIR 1 HR/D 4 D/WK FOR 25 WK (STUDY DURATION: LIFETIME), Tumor Site: Type of Lesion: [BRAIN WAS ONLY SITE EVALUATED]) was “inactive; negative”. The carcinogen call (Strain/Sex: SPRAGUE-DAWLEY/MALE, Route: INHALATION, Dose: 0, 6000, 10000 PPM IN AIR 4 HR/D 1 D/WK FOR 25 WK (STUDY DURATION: LIFETIME), Dose: 0, 6000, 10000 PPM IN AIR 4 HR/D 1 D/WK FOR 25 WK (STUDY DURATION: LIFETIME), Tumor Site: Type of Lesion: [BRAIN WAS ONLY SITE EVALUATED]) was “inactive; negative”, the carcinogen call (Strain/Sex: SPRAGUE-DAWLEY/MALE, Route: INHALATION, Dose: 0, 6000, 10000 PPM IN AIR 4 HR/D 5 D/WK FOR 5 WK (STUDY DURATION: LIFETIME), Dose: 0, 6000, 10000 PPM IN AIR 4 HR/D 5 D/WK FOR 5 WK (STUDY DURATION: LIFETIME), Tumor Site: Type of Lesion: [BRAIN WAS ONLY SITE EVALUATED]) was “inactive; negative” and the carcinogen call (Strain/Sex: SPRAGUE-DAWLEY, Route: ORAL, Tumor Site: Type of Lesion: LIVER) was “active; positive”. The carcinogen call (Strain/Sex: WISTAR/FEMALE, Route: ORAL, Dose: 0, 0.014, 0.13, 1.3 MG/KG/BW/D IN DIET FOR DURATION OF STUDY (STUDY DURATION: 150 WK), Dose: 0, 0.014, 0.13, 1.3 MG/KG/BW/D IN DIET FOR DURATION OF STUDY (STUDY DURATION: 150 WK), Tumor Site: Type of Lesion: LIVER: NEOPLASTIC NODULES) was “active; positive”, the carcinogen call (Strain/Sex: WISTAR/MALE, Route: INHALATION, Dose: 0, 1, 50, 250, 500, 2500, 6000, 10000 PPM 4 HR/D, 5 D/WK FOR 52 WK (STUDY DURATION: 134-165 WK), Dose: 0, 1, 50, 250, 500, 2500, 6000, 10000 PPM 4 HR/D, 5 D/WK FOR 52 WK (STUDY DURATION: 134-165 WK), Tumor Site: Type of Lesion: LIVER: ANGIOSARCOMA, NERVOUS SYSTEM: NEUROBLASTOMA) was “active; positive” and the carcinogen call (Strain/Sex: WISTAR/MALE, Route: ORAL, Dose: 0, 0.014, 0.13, 1.3 MG/KG/BW/D IN DIET FOR DURATION OF STUDY (STUDY DURATION: 149 WK), Dose: 0, 0.014, 0.13, 1.3 MG/KG/BW/D IN DIET FOR DURATION OF STUDY (STUDY DURATION: 149 WK), Tumor Site: Type of Lesion: LIVER: HEPATOCELLULAR CARCINOMA) was “active; positive”.
